Format in all cases: biochemical
In one assay the target is T1, JAK1 (Homo sapiens, UniProt P23458).
T1 construct: purchased Carna Biosciences 08-144
As to the kind of experiment: Functional assay of protein Janus kinases (Caliper mobility shift), JAK1. The conditions noted are these: ATP 100 μM, incubation 150 min; read-out: JAK1 enzymatic activity (IC50) score. As for the experimental part: (§1) The functional assays of protein Janus kinases were carried out in 384-well plates using a final volume of 30 μl. […] The reaction was reads in a “Caliper EzReader LabChip 3000” (Caliper, Hopkinton, Mass.) reader, based on electrophoretic mobility of the fluorescent substrate and the phosphorylated product.
(§2) The inhibition percentages were calculated by comparison between control reactions, for 100% of inhibition and reactions with only DMSO for 0% of inhibition.

The next assay deals with T2, Human ARK5/NUAK1 (Homo sapiens, UniProt O60285).
T2 construct: purchased Reaction Biology ARK5/NUAK1
T2 sequence (O60285 1-661): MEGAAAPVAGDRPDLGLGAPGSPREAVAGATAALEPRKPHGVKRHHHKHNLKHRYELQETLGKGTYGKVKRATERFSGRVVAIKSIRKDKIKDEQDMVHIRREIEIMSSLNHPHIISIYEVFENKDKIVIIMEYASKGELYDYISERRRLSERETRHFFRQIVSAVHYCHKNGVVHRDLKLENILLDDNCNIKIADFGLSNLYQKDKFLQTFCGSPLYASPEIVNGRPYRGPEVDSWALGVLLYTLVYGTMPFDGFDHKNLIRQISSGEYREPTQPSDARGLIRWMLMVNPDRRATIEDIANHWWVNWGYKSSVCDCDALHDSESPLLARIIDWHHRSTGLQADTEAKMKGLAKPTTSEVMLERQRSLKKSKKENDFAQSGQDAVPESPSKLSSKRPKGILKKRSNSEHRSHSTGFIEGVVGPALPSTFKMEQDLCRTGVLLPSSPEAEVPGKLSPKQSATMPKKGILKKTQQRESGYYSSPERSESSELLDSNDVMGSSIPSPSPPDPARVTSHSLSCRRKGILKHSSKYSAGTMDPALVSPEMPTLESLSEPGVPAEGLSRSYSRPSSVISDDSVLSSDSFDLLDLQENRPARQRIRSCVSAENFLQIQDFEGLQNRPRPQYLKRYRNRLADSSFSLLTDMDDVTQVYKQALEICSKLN
As to the kind of experiment: ARK5 activity inhibition test (Reaction Biology kit, 33P-ATP filter assay). The conditions noted are these: ATP 10 μM, peptide substrate 20 μM, 120 min; read-out: ARK5 enzymatic activity (IC50) score. As for the experimental part: Activity test was carried out using the kit from Reaction Biology (CAT #: ARK5/NUAK1). The test uses enzyme Human ARK5/NUAK1 and the substrate is the peptide […] (SEQ ID NO: 1), 20 μM and ATP 10 μM. Other reagents are the following: Base Reaction buffer; 20 mM Hepes (pH 7.5), 10 mM MgCl2, 1 mM EGTA, 0.02% Brij35, 0.02 mg/ml BSA, 0.1 mM Na3VO4, 2 mM DTT, 1% DMSO.
The reaction was carried out following the instructions of manufacturer. Briefly, kinase/substrate pairs were prepared in reaction buffer. Compounds were delivered into the reaction, followed 20 minutes later by addition of a mixture of ATP (Sigma, St. Louis Mo.) and ^33P ATP (Perkin Elmer, Waltham Mass.) to a final concentration of 10 μM. Reactions were carried out at room temperature for 120 min, followed by spotting of the reactions onto P81 ion exchange filter paper (Whatman Inc., Piscataway, N.J.). Unbound phosphate was removed by extensive washing of filters in 0.75% phosphoric acid. […] IC50 values and curve fits were obtained using Prism (GraphPad Software).

For a further assay, the target named is T3, TYK2 (Homo sapiens, UniProt P29597).
T3 construct: purchased Carna Biosciences 08-147
T3 sequence (P29597 871-1187 limits assumed): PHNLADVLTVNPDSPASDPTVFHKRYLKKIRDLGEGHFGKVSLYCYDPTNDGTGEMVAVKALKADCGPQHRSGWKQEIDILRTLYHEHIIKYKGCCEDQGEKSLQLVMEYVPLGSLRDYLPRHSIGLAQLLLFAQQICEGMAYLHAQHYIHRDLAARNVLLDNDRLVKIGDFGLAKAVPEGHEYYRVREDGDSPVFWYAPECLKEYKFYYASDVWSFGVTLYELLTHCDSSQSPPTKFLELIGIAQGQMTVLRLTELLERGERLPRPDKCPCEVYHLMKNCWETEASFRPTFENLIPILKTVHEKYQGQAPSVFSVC
In words: Functional assay of protein Janus kinases (Caliper mobility shift), TYK2. The conditions noted are these: ATP 20 μM, incubation 45 min; read-out: TYK2 enzymatic activity (IC50) score. As for the experimental part: as §1, §2

The target of the next assay is T4, JAK3 (Homo sapiens, UniProt P52333).
T4 construct: purchased Carna Biosciences 08-046
T4 sequence (P52333 795-1124 limits assumed): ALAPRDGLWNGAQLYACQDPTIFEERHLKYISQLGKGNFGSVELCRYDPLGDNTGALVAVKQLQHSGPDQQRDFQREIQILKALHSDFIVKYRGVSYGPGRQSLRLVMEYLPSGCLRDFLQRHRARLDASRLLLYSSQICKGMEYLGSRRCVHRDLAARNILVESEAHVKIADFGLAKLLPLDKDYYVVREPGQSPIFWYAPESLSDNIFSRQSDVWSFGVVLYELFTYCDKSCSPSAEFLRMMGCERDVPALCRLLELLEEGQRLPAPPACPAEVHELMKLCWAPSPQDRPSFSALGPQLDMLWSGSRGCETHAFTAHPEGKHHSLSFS
In words: Functional assay of protein Janus kinases (Caliper mobility shift), JAK3. The conditions noted are these: ATP 8 μM, incubation 30 min; read-out: JAK3 enzymatic activity (IC50) score. The method, then:
as §1, §2

Another assay deals with T5, JAK2 (Homo sapiens, UniProt O60674).
T5 construct: purchased Carna Biosciences 08-045
T5 sequence (O60674 826-1132 limits assumed): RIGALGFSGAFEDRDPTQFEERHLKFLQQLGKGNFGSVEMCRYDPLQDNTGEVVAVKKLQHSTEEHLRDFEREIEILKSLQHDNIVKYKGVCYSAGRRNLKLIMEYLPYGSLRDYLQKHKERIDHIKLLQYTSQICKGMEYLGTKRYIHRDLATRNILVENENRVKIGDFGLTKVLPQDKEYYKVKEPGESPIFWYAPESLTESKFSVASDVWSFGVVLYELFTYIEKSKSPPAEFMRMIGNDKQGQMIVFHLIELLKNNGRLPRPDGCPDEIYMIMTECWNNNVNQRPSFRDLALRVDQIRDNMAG
As to the kind of experiment: Functional assay of protein Janus kinases (Caliper mobility shift), JAK2. The conditions noted are these: ATP 300 μM, incubation 30 min; read-out: JAK2 enzymatic activity (IC50) score. As for the experimental part:
as §1, §2

Experimental findings from patent US11021479B2, “Pyridoquinazoline derivatives useful as protein kinase inhibitors” (ONCOSTELLAE, S.L., priority 2017, dated 2021) are described below.

T1 sequence (P23458 850-1154 limits assumed): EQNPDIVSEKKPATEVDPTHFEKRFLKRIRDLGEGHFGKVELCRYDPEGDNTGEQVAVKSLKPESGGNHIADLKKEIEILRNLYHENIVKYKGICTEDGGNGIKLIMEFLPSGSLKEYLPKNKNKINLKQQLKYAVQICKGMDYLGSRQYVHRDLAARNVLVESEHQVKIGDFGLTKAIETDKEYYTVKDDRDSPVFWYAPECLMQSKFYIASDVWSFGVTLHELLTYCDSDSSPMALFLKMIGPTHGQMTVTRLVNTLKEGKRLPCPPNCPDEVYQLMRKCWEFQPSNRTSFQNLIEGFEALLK

The term IC50 denotes the concentration at which inhibition is half-maximal. With `CN1CCN(c2ccc3nc4c(C(=O)NC5CCCCC5)cccn4c(=O)c3c2)CC1` [Example 36, N-cyclohexyl-2-(4-methylpiperazin-1-yl)-11-oxo-11H-pyrido[2,1-b]quinazoline-6-carboxamide], the IC50 is greater than 1 µM on JAK1; less than 0.1 µM on Human ARK5/NUAK1; less than 0.1 µM at TYK2; less than 0.1 µM at JAK3; greater than 1 µM at JAK2.

Take `O=C(NC1CCCCC1)c1cccn2c(=O)c3cc(C4CC4)ccc3nc12` [Example 1, N-cyclohexyl-2-cyclopropyl-11-oxo-11H-pyrido[2,1-b]quinazoline-6-carboxamide]: the half-maximal inhibitory concentration (IC50) on JAK1 is greater than 1 µM; at Human ARK5/NUAK1, less than 0.1 µM; at TYK2, less than 0.1 µM; on JAK3, less than 0.1 µM; on JAK2, greater than 1 µM.

For `O=C(NC1CCCCC1)c1cccn2c(=O)c3cc(-c4ccncc4)ccc3nc12` [Example 33, N-cyclohexyl-11-oxo-2-(pyridin-4-yl)-11H-pyrido[2,1-b]quinazoline-6-carboxamide], the IC50 was greater than 1 µM at JAK1; less than 0.1 µM on Human ARK5/NUAK1; less than 0.1 µM at TYK2; less than 0.1 µM at JAK3; greater than 1 µM at JAK2.

In the case of `COc1ccc2nc3c(C(=O)NC4CCCCC4)cccn3c(=O)c2c1` [Example 20, N-cyclohexyl-2-methoxy-11-oxo-11H-pyrido[2,1-b]quinazoline-6-carboxamide], the 50% inhibitory concentration (IC50) on Human ARK5/NUAK1, on TYK2 and at JAK3 was less than 0.1 µM in each case.

For the compound `C[C@]1(O)CC[C@H](NC(=O)c2cccn3c(=O)c4cc(C5CC5)ccc4nc23)CC1` [Example 6, 2-cyclopropyl-N-((1R,4R)-4-hydroxy-4-methylcyclohexyl)-11-oxo-11H-pyrido[2,1-b]quinazoline-6-carboxamide], the IC50 on JAK1 is greater than 1 µM; at TYK2, less than 0.1 µM; on JAK3 it was less than 0.1 µM; at JAK2, greater than 1 µM.

On to `O=C(N[C@@H]1CCCC[C@@H]1O)c1cccn2c(=O)c3cc(C4CC4)ccc3nc12` [Example 11, 2-cyclopropyl-N-((1R,2S)-2-hydroxycyclohexyl)-11-oxo-11H-pyrido[2,1-b]quinazoline-6-carboxamide], for which the IC50 was greater than 1 µM at JAK1, 0.1 to 1 µM at TYK2, less than 0.1 µM on JAK3 and greater than 1 µM at JAK2.

With `O=C(NC1CCCC1)c1cccn2c(=O)c3cc(O)ccc3nc12` [Example 18, N-cyclopentyl-2-hydroxy-11-oxo-11H-pyrido[2,1-b]quinazoline-6-carboxamide], the IC50 on JAK1 is greater than 1 µM; on TYK2, less than 0.1 µM; on JAK3, 0.1 to 1 µM; on JAK2 it was greater than 1 µM.

Consider `O=C(NC1CCCCC1)c1cccn2c(=O)c3cc(N4CCOCC4)ccc3nc12` [Example 38, N-cyclohexyl-2-morpholino-11-oxo-11H-pyrido[2,1-b]quinazoline-6-carboxamide], for which the IC50 was greater than 1 µM at JAK1; less than 0.1 µM at Human ARK5/NUAK1; less than 0.1 µM on TYK2; less than 0.1 µM at JAK3; greater than 1 µM on JAK2.

Take `O=C(N[C@H]1CCCC[C@H]1O)c1cccn2c(=O)c3cc(Br)ccc3nc12` [Example 27, 2-bromo-N-((1S,2R)-2-hydroxycyclohexyl)-11-oxo-11H-pyrido[2,1-b]quinazoline-6-carboxamide]: the IC50 on JAK1 is greater than 1 µM; on TYK2 it was 0.1 to 1 µM; at JAK3 it was 0.1 to 1 µM; at JAK2, greater than 1 µM.

Regarding `O=C(NC1CCCC1)c1cccn2c(=O)c3cc(C4CC4)ccc3nc12` [Example 2, N-cyclopentyl-2-cyclopropyl-11-oxo-11H-pyrido[2,1-b]quinazoline-6-carboxamide], the IC50 was greater than 1 µM on JAK1; less than 0.1 µM on Human ARK5/NUAK1; less than 0.1 µM on TYK2; less than 0.1 µM at JAK3; greater than 1 µM on JAK2.

Consider `CC1COCCC1NC(=O)c1cccn2c(=O)c3cc(C4CC4)ccc3nc12` (stereo not shown) [Example 5, 2-cyclopropyl-N-(3-methyltetrahydro-2H-pyran-4-yl)-11-oxo-11H-pyrido[2,1-b]quinazoline-6-carboxamide], for which the IC50 at JAK1 is greater than 1 µM; on TYK2, less than 0.1 µM; at JAK3, less than 0.1 µM; at JAK2 it was greater than 1 µM.

With `O=C(N[C@@H]1CCCC[C@H]1O)c1cccn2c(=O)c3cc(C4CC4)ccc3nc12` [Example 9, 2-cyclopropyl-N-((1R,2R)-2-hydroxycyclohexyl)-11-oxo-11H-pyrido[2,1-b]quinazoline-6-carboxamide], the IC50 at JAK1 is greater than 1 µM; on TYK2 it was greater than 1 µM; at JAK3, 0.1 to 1 µM; at JAK2, greater than 1 µM.

Consider `CN1CCN(c2ccc3nc4c(C(=O)NC5CCCC5)cccn4c(=O)c3c2)CC1` [Example 35, N-cyclopentyl-2-(4-methylpiperazin-1-yl)-11-oxo-11H-pyrido[2,1-b]quinazoline-6-carboxamide], for which the IC50 at JAK1 was greater than 1 µM; at TYK2, 0.1 to 1 µM; at JAK3, less than 0.1 µM; at JAK2 it was greater than 1 µM.

Turning to `O=C(NC1CCCCC1)c1cccn2c(=O)c3cc(F)ccc3nc12` [Example 24, N-cyclohexyl-2-fluoro-11-oxo-11H-pyrido[2,1-b]quinazoline-6-carboxamide], the IC50 is greater than 1 µM on JAK1, 0.1 to 1 µM at TYK2, 0.1 to 1 µM at JAK3 and greater than 1 µM at JAK2.

`O=C(NC1CCCCC1O)c1cccn2c(=O)c3cc(C4CC4)ccc3nc12` (stereo not shown) [Example 8, 2-cyclopropyl-N-(2-hydroxycyclohexyl)-11-oxo-11H-pyrido[2,1-b]quinazoline-6-carboxamide]: the IC50 is greater than 1 µM on JAK1, less than 0.1 µM at TYK2, 0.1 to 1 µM on JAK3 and greater than 1 µM on JAK2.

In the case of `O=C(NC1CCCC1)c1cccn2c(=O)c3cc(-c4ccncc4)ccc3nc12` [Example 32, N-cyclopentyl-11-oxo-2-(pyridin-4-yl)-11H-pyrido[2,1-b]quinazoline-6-carboxamide], the IC50 is greater than 1 µM on JAK1, less than 0.1 µM on TYK2, 0.1 to 1 µM at JAK3 and greater than 1 µM on JAK2.

As for `O=C(N[C@H]1CCCC[C@H]1O)c1cccn2c(=O)c3cc(C4CC4)ccc3nc12` [Example 10, 2-cyclopropyl-N-((1S,2R)-2-hydroxycyclohexyl)-11-oxo-11H-pyrido[2,1-b]quinazoline-6-carboxamide], the IC50 on JAK1 is greater than 1 µM; at TYK2 it was less than 0.1 µM; on JAK3 it was less than 0.1 µM; at JAK2, greater than 1 µM.

In the case of `O=C(NC1CCCCC1)c1cccn2c(=O)c3cc(-c4ccccc4)ccc3nc12` [Example 28, N-cyclohexyl-11-oxo-2-phenyl-11H-pyrido[2,1-b]quinazoline-6-carboxamide], the IC50 on JAK1 is greater than 1 µM; at TYK2 it was 0.1 to 1 µM; at JAK3, 0.1 to 1 µM; on JAK2, greater than 1 µM.
